Measured values taken from patent US9867798B2, “Ladostigil therapy for immunomodulation” (priority 2012, dated 2018).
“And” between values parts separate entries of the source, which are not always exact repeats. Equal values may be shown once.

Columns and labels:
[1] = tested on: Psammomys obesus gerbils on high-energy diet; assay: Diabetes in gerbils on high-energy diet: glucose, insulin, pancreatic islets; type: in vivo; set-up: Change in glucose: unit: mg/dL
Description: (§1) Male Psammomys obesus gerbils aged 3.5-4 months were given a high-energy diet consisting of 938.5 g/Kg version of 2018SC+F Harlan Tekled Ltd., USA, supplemented with soybean oil to a final fat concentration of 6%. After one week on the diet, blood was taken for measurement of glucose and ChE activity. Half of the animals were given ladostigil (17 mg/kg/day) by gavage while the remainder received tap water by the same route. Blood was taken from the tail once weekly for measurement of glucose as described in Kalman R., et al, (2001). Lab Anim. 35:346-352. After three weeks of treatment the animals they were deeply anesthetized, blood was taken by cardiac puncture for measurement of ChE activity, glucose and insulin levels and the pancreas removed for section and staining with haematoxylin and eosin and the number of islets counted. Blood glucose of 11 animals had reached values exceeding 200 mg/dL after one week on the high energy diet and the average value for the whole group was 300±27 mg/dL. […] It is noted, that cholinesterase activity in plasma of Psammomys obesus is mostly mediated by butyrylcholinesterase (BuChE) rather than by AChE.

[2] = tested on: AChE; settings: 51 and 70.1 mg/kg/day, doses effective in ameliorating EAE; cited from earlier work
[3] = tested on: mice with DSS-induced colitis; assay: Acute colitis induced by DSS in mice: body weight, stool, bleeding, DAI, colon length; type: in vivo, BALB/c OlaHsd mice
Description: BALB/c OlaHsd male mice aged 8-9 weeks and weighing 25-30 g were purchased from Harlan (Jerusalem, Israel) and housed in standard cages of up to 5 per cage in the pathogen free Animal Facility of the Institute for Drug Research. All experiments were performed in accordance with the Principles of Laboratory Animal Care (NIH publication #85-23, revised 1985) protocols MD-09-12197-4. Acute colitis was induced in mice by administration of 5% DSS solution (M.Wt.=[…], MP Biomedicals, LLC, Solon, Ohio, USA) in water for 8 days. The DSS solution was freshly prepared every day. Mice were provided with food and water or DSS solution ad libitum during the experiment. They were divided into groups of 10 as follows: Vehicle control group: mice drank water and were given water (1 ml/100 gm) once daily by gavage for 8 days; Drug control group: mice drank water and were given ladostigil (10 mg/kg) by gavage once daily for 8 days. DSS untreated group: mice drank 5% DSS for 7 days and water on the 8th day and were given water (1 ml/100 g) once daily by gavage for 8 days. Drug treated group: mice drank 5% DSS followed by water as above and were given ladostigil (5 or 10 mg/kg) by gavage once daily for 8 days. The volume of 5% DSS solution consumed was measured for each group of mice and the average volume/mouse was calculated. On the eighth day, the mice were anesthetized by CO2 and sacrificed by cervical dislocation 2 h after the last dose of ladostigil. Samples of colon and spleen were taken for measurement of cytokines MPO, cytokines and ChE activity.
Body weight, stool consistency and the presence of blood in the stools was recorded daily for each mouse. […] The score ranged between 0-4 for all three parameters and was composed as follows: Weight loss: none=0, 1-5%=1, 5-10%=2, 10-20%=3, >20%=4. Percent of weight loss on days 7 and 8 relative to the first day was calculated for all the groups. […] Bleeding: none=0, hemoccult=2, gross bleeding=4. The maximum DAI score was 4 based on a combination of scores of weight loss (relative to that on the first day of the experiment), stool consistency and bleeding, divided by 3. After sacrifice the length of the colon segment from the cecum to the rectum was measured.

[4] = tested on: LPS-induced TNF-α, IL-1β and IL-6 in spleen; assay: Cytokines in spleen of mice injected with LPS, comparison to rivastigmine (Example 5); type: in vivo, Balb/c mice; settings: for IL-1β in spleen / IL-6 in spleen / TNF-α in spleen: four hours
Description: Male Balb/c mice (aged 8-9 weeks, weighing 25-30 gm) were given ladostigil (10 or 20 mg/kg) or rivastigmine (0.5 or 1 mg/kg) by gavage, or water (1 ml/100 g), followed 15 min later by an intra-peritoneal injection of LPS (10 mg/kg). Control mice were given LPS and water by gavage (1 ml/100 g). For measurement of cytokine levels in the spleen and blood the mice were sacrificed 4 h after drug administration, blood collected in heparinized tubes and centrifuged to obtain plasma and the spleen was rapidly removed and weighed. Plasma and spleen were frozen in liquid nitrogen and stored at −80° C. until use. For measurement of cytokine levels, the tissue was diluted in PBS containing 0.8% NaCl, 0.144% NaHPO4, 0.024% KH2PO4 and protease inhibitor cocktail (Sigma Israel, P8340) and homogenized in an Ultra-TURRAX® homogenizer at a speed of 24,000 rpm, centrifuged at 14000 g for 15 min at 4° C. Cytokines were detected in the supernatant by using ELISA kits for cytokines IL-1β, IL-6, and TNF-α (Biolegend) following the manufacturer's protocol. Each experiment was performed twice with 8 replicate measures in each experiment. Protein concentration in each sample was determined with Bradford reagent (Bio-RAD, 500-0006).

[5] = tested on: cholinesterase (mostly BuChE); assay: ChE inhibition in gerbil plasma (Ellman); type: in vivo, Psammomys obesus; settings: 17 mg/kg/day, three hours after the last gavage, vs same gerbil before treatment
Description: as §1

[6] = ladostigil 10 mg/kg + LPS 10 mg/kg
[7] = ladostigil 20 mg/kg + LPS 10 mg/kg

C#CCN[C@@H]1CCc2ccc(OC(=O)N(C)CC)cc21 [Ladostigil, R(+)-6-(N-methyl, N-ethyl-carbamoyloxy)-N′-propargyl-1-aminoindan]
Blood glucose levels ([1]; 17 mg/kg/day, three weeks): decrease in blood glucose levels in all six animals
Insulin after 3 weeks of treatment ([1]; individual gerbils, 17 mg/kg/day): 132 mU/L and 126.6 mU/L and 124.6 mU/L and 85.3 mU/L and 172 mU/L and 135.3 mU/L
Glucose after 3 weeks of treatment ([1]; individual gerbils, 17 mg/kg/day by gavage, 17 mg/kg/day): 284 mg/dL and 250 mg/dL and 180 mg/dL and 311 mg/dL and 222 mg/dL and 266 mg/dL
Change in glucose ([1]; individual gerbils, 17 mg/kg/day, after 3 weeks vs before, 17 mg/kg/day): −136 and −23 and −20 and −41 and −65 and −19
No of islets ([1]; individual gerbils, 17 mg/kg/day, after 3 weeks, 17 mg/kg/day): 42 and 117 and 79 (2×) and 99 and 87
Glucose before treatment ([1]; individual gerbils, baseline after one week of high energy diet, group later given 17 mg/kg, 17 mg/kg): 420 mg/dL and 273 mg/dL and 200 mg/dL and 352 mg/dL and 287 mg/dL and 285 mg/dL
Inhibition of AChE in blood [2]: 60-65%
Inhibition of AChE in brain [2]: 47-52%
Decrease in colon length and signs of hyperemia and inflammation ([3]; 5% DSS, 5 and 10 mg/kg, untreated decrease >30%): significantly less
Reduction of DSS-induced weight loss ([3]; 5% DSS, both doses (5 and 10 mg/kg), untreated loss 15%): ~50%
Diarrhea ([3]; 5% DSS, day 7, both doses (5 and 10 mg/kg)): significantly decreased
Bleeding ([3]; 5% DSS, day 8, 5 mg/kg): significantly decreased
Disease activity index (DAI) ([3]; 5% DSS, days 7 and 8, drug treated groups vs DSS-water, p<0.01): significantly different from that of the group drinking DSS given water
Body weight increase during 8 days ([3]; mice receiving 5 or 10 mg/kg by gavage, no DSS): 2-3%
Reduction of IL-1β levels in spleen ([4]; ladostigil 10 mg/kg + LPS): 31.1±4.3%
Reduction of IL-6 levels in spleen ([4]; ladostigil 10 mg/kg + LPS): 50.0±7.2%
Reduction of TNF-α levels in spleen ([4]; ladostigil 10 mg/kg + LPS): 49.7±7.6%
IL-1β in spleen [4, 6]: 401 ± 40 pg/mg
IL-6 in spleen [4, 6]: 351 ± 50 pg/mg
TNF-α in spleen [4, 6]: 9.6 ± 1.5 pg/mg
Effect on TNF-α or IL-1β levels in spleen ([4]; ladostigil 20 mg/kg + LPS): had no effect
Reduction of IL-6 levels in spleen ([4]; ladostigil 20 mg/kg + LPS): 42.7±8.3%
IL-1β in spleen [4, 7]: 591 ± 17 pg/mg
IL-6 in spleen [4, 7]: 454 ± 59 pg/mg
TNF-α in spleen [4, 7]: 17.1 ± 1.9 pg/mg
ChE inhibition in plasma [5]: 50±3%
